Laboratory results: article PMC7998855 (Toxins, 2021)
Values joined by “and” are separate entries in the source; they are usually repeats but may differ in a detail not shown here. Equal entries are not always repeated.

Legend:
[1] = tested on: differentiated C2BBe1 cells; format: cell-based, human; details: for TEER, normalized to solvent control: SD
[2] = tested on: tight junction protein claudin-4 (CLD-4); test: Immunofluorescence staining of claudin-4; format: cell-based, human; details: 24 h, mean ± SD, 3 biological replicates, at least 9 optical fields
mucin 5AC [3] = details: 2 µM DON, 48 h incubation; cited from earlier work
Procedure: In addition to the investigation of barrier integrity, interest in the influence of mycotoxins on the intestinal mucus layer recently emerged, whereby data is still scarce. […] In addition to the different incubation times a ...

[4] = tested on: differentiated Caco-2 (C2BBe1) cell monolayer; format: cell-based, human; details: 24 h incubation with toxin (CER 1-100 ng/mL, DON 0.1-10 µg/mL), then 0.1 mg/mL LY apical in HBSS pH 7.4, 1 h, 37 °C, basolateral fluorescence, 3 biological replicates
mucin 5AC [5] = test: Immunofluorescence staining of mucin 5AC; format: cell-based, human; details: 24 h, 3 biological replicates; for mucin 5AC fluorescence intensity compared to the solvent control: mean ± SD, SD
[6] = tested on: differentiated Caco-2 (C2BBe1) cells
[7] = tested on: differentiated Caco-2 cells; test: LC-MS/MS of CER in transwell compartments (uptake); format: in vitro ADME, human; details: 24 h; for CER concentration in basolateral medium: apical application, mean ± SD, 3 biological replicates, SD

Molecule	TEER, normalized to solvent control [1]	CLD-4 immunofluorescence intensity in comparison to the solvent control ([2]; 10 µg/mL DON) [%]	mucin 5AC in cell lysates of Caco-2 cells (mucin 5AC [3])	Effect on paracellular passage of Lucifer Yellow [4]	mucin 5AC fluorescence intensity vs solvent control (mucin 5AC [5]; DON alone (1 and 10 µg/mL))	DON concentration in cell lysates [6]	Detection of DON in apical medium, basolateral medium and cell lysates [6]	TEER [1]	CLD-4 immunofluorescence intensity in comparison to the solvent control ([2]; 10 ng/mL CER) [%]	CLD-4 immunofluorescence intensity in comparison to the solvent control ([2]; 100 ng/mL CER) [%]	CER concentration in basolateral medium ([7]; 100 ng/mL CER with 10 µg/mL DON, transwell) [ng/mL medium]	CER concentration in basolateral medium ([7]; 100 ng/mL CER without DON, transwell) [ng/mL medium]	CER in cell lysates ([7]; 1-100 ng/mL CER with or without DON)	CER in the apical compartment ([7]; 1-100 ng/mL CER with or without DON, transwell)	mucin 5AC fluorescence intensity compared to the solvent control (mucin 5AC [5]; 10 ng/mL CER) [%]	mucin 5AC fluorescence intensity compared to the solvent control (mucin 5AC [5]; 100 ng/mL CER) [%]
CC1=C[C@H]2O[C@@H]3[C@H](O)C[C@](C)([C@@]2(CO)[C@H](O)C1=O)[C@]31CO1 [DON, deoxynivalenol]	116 ± 12% and 116 ± 6%	127 ± 38	upregulation of mucin 5AC	no significant effects	no significant effect	< LOD	detected in all compartments and incubation conditions, except the cell lysates treated with the lowest toxin concentration									
cereulide	193 ± 7% and 163 ± 34%			no significant effects				no impact	173 ± 41	138 ± 49	0.07 ± 0.05	0.04 ± 0.02	detected in the cell lysates of all samples	quantified in all treatment conditions	80 ± 14	73 ± 20
